This is an account of results in US20150352108A1, “AMINO-PYRIMIDINE COMPOUNDS AS INHIBITORS OF TBK1 AND/OR IKK EPSILON” (Alzheimer's Institute of America, priority 2009, published 2015).

The subject of assay [1] is IKKε-mediated phosphorylation of IRF3. The assay is described as follows: In-situ phosphorylation of IRF3 (pIRF3 Ser396 ELISA) in HEK293T cells cotransfected with IRF3 and IKKε. Particulars: Homo sapiens, HEK-293T. The format is cell-based. In short, it runs like this: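 Cells for the IRF7 Western blots carried IRF7 and TBK1 plasmids, were seeded at 150,000/well, exposed to compound overnight and probed for pSer477/Ser479 IRF7. The ELISA readout used IRF3 + IKKε-cotransfected HEK293T at 20,000/well with 20 h treatment, quantifying pSer396 IRF3 relative to DMSO, plus a parallel CellTiter-Glo viability check.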
In general terms: In an ELISA, binding on a coated surface is turned into a signal by an enzyme label.

The next assay has as its target T1, TBK1 (Homo sapiens, UniProt Q9UHD2).
T1 construct: His-tag; made in house; host or cells: Sf9 insect cells
T1 sequence (Q9UHD2 1-729): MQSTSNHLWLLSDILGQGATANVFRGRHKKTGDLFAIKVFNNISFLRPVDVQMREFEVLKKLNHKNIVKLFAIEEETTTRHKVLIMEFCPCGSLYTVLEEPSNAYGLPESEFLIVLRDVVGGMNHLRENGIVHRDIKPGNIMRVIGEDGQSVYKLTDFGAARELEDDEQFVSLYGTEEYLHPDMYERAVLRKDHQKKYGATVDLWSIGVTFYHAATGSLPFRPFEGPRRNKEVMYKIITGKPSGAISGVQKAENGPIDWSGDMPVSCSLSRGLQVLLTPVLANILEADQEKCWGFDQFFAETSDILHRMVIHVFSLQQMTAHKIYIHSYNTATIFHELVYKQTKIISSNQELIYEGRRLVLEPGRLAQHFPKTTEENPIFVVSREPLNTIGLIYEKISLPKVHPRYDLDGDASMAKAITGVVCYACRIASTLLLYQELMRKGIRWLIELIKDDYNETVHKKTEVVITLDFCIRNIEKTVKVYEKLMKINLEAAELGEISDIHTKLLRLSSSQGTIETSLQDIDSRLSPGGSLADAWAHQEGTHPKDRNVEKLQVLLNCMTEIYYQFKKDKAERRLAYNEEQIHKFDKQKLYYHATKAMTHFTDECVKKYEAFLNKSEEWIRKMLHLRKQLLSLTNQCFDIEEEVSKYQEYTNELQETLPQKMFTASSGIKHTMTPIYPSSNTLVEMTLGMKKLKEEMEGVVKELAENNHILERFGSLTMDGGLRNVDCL
The assay is described as follows: In-vitro TBK1 kinase assay ([γ33]ATP filter-plate). The format is biochemical. In short, it runs like this:
(§1)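 His-tagged IKKε and TBK1 from Sf9 cells were assayed with myelin basic protein or casein and [γ33]ATP at 2×Km ATP (32 μM for IKKε, 60 μM for TBK1). Enzyme was 0.1 or 0.015 μg/ml for IKKε and 0.1 or 0.02 μg/ml for TBK1 (normal/sensitized). Reactions ran 30-45 min, were filter-captured, scintillation-counted, and normalized to DMSO after background subtraction.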

The target in a further assay is T2, IKKε (Homo sapiens, UniProt Q14164).
T2 construct: His-tag; made in house; host or cells: Sf9 insect cells
T2 sequence (Q14164 1-716): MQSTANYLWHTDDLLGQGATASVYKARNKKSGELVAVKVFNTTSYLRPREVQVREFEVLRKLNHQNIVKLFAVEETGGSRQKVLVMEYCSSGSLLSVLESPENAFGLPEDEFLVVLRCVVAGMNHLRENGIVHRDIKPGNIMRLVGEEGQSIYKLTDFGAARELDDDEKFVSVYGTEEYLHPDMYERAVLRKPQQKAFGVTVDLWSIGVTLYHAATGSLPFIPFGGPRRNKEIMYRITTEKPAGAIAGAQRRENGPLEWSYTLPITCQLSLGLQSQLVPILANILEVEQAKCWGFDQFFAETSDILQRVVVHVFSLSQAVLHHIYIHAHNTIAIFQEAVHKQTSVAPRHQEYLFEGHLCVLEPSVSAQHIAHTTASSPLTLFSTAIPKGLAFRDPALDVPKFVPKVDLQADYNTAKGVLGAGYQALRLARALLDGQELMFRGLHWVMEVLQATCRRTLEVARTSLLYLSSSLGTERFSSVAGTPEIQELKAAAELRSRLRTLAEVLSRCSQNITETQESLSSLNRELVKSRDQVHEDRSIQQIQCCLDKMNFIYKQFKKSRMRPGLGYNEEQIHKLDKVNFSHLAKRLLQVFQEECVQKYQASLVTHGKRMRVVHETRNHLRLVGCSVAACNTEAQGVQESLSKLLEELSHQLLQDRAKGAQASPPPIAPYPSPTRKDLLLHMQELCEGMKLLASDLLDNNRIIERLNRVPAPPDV
The assay is described as follows: In-vitro IKKε kinase assay ([γ33]ATP filter-plate). The assay is classed as biochemical. In short, it runs like this: as §1

The mark [2] stands for this setting: HEK293T cells, 20 hours, text bins, read-out: IC50 for inhibition of the in-situ IKKε-mediated phosphorylation of IRF3.
[3] abbreviates: text bins, read-out: IC50 for inhibition of the kinase activity of TBK1.
[4] abbreviates: text bins, read-out: IC50 for inhibition of the kinase activity of IKKε.
[5] abbreviates: HEK293T cells in culture, Table 3, read-out: pIRF3 ELISA IC50.

Where two headings read alike, the source gives them in different places.

As a reminder, the IC50 is the concentration that gives 50% inhibition. Take `CNS(=O)(=O)Cc1ccc(Nc2nccc(-c3ccc(OC4CCOCC4)c(C#N)c3)n2)cc1` [compound 413, 1-[4-({4-[3-cyano-4-(tetrahydro-2H-pyran-4-yloxy)phenyl]pyrimidin-2-yl}amino)phenyl]-N-methylmethane-sulfonamide]: the IC50 in assay [1] (setting [2]) is less than 100 nM; at TBK1 (setting [3]) it was less than 10 nM; on IKKε (setting [4]), less than 5 nM.

On to `COCCNCc1ccc(Nc2nccc(-c3ccc(OCC(C)C)c(C#N)c3)n2)cc1` [compound 651], for which the IC50 in assay [1] (setting [2]) is less than 100 nM; on TBK1 (setting [3]), less than 10 nM; at IKKε (setting [4]), less than 5 nM.

On to `CCN(CC)CCOCCOc1cc(Nc2nccc(-c3ccc(OC4CCOCC4)c(C#N)c3)n2)ccc1OC` [compound 531, 5-{2-[(3-{2-[2-(diethylamino)ethoxy]ethoxy}-4-methoxyphenyl)amino]pyrimidin-4-yl}-2-(tetrahydro-2H-pyran-4-yloxy)benzonitrile], for which the IC50 in assay [1] (setting [2]) is less than 100 nM; at TBK1 (setting [3]), less than 10 nM; at IKKε (setting [4]), less than 5 nM.

For `COCCNCc1ccc(Nc2nccc(-c3ccc(OC4CCOCC4)c(C#N)c3)n2)cc1OC` [compound 478, 5-{2-[(3-Methoxy-4-{[(2-methoxyethyl)amino]methyl}phenyl)amino]pyrimidin-4-yl}-2-(tetrahydro-2H-pyran-4-yloxy)benzonitrile], the IC50 was less than 100 nM in assay [1] (setting [2]), less than 10 nM at TBK1 (setting [3]) and less than 5 nM at IKKε (setting [4]).

As to `COc1cc(Nc2nccc(-c3ccc(OC4CCOCC4)c(C#N)c3)n2)ccc1C(=O)N1CC(O)C1` [compound 485, 5-[2-({4-[(3-Hydroxyazetidinb-1-yl)carbonyl]-3-methoxyphenyl}amino)pyrimidin-4-yl]-2-(tetrahydro-2H-pyran-4-yloxy)benzonitrile], the IC50 in assay [1] (setting [2]) was less than 100 nM; on TBK1 (setting [3]), less than 10 nM; on IKKε (setting [4]) it was less than 5 nM.

For the molecule `CNS(=O)(=O)Cc1cccc(Nc2nccc(-c3ccc(OC4CCOCC4)c(C#N)c3)n2)c1` [compound 648, 1-[3-({4-[3-Cyano-4-(tetrahydro-2H-pyran-4-yloxy)phenyl]pyrimidin-2-yl}amino)phenyl]-N-methylmethane-sulfonamide], the IC50 in assay [1] (setting [5]) was 179 nM; in assay [1] (setting [2]), 100 to 250 nM; on TBK1 (Table 3, read-out: TBK1 IC50) it was 0.5 nM; at TBK1 (setting [3]) it was less than 10 nM; on IKKε (Table 3, read-out: IKKε IC50), 3.9 nM; at IKKε (setting [4]), less than 5 nM.

Take `COc1cc(Nc2nccc(-c3ccc(OC4CCOCC4)c(C#N)c3)n2)ccc1C(=O)N1CCC1` [compound 567, 5-(2-{[4-(Azetidin-1-ylcarbonyl)-3-methoxyphenyl]amino}pyrimidin-4-yl)-2-(tetrahydro-2H-pyran-4-yloxy)benzonitrile]: the half-maximal inhibitory concentration (IC50) in assay [1] (setting [2]) was less than 100 nM; on TBK1 (setting [3]), less than 10 nM; at IKKε (setting [4]), less than 5 nM.

`N#Cc1cc(-c2ccnc(Nc3cccc(-c4nnn[nH]4)c3)n2)ccc1OC1CCOCC1` [compound 594, 2-(Tetrahydro-2H-pyran-4-yloxy)-5-(2-{[3-(1H-tetrazol-5-yl)phenyl]amino}pyrimidin-4-yl)benzonitrile]: the IC50 in assay [1] (setting [5]) is greater than 5000 nM; at TBK1 (Table 3, read-out: TBK1 IC50), 2 nM; on TBK1 (setting [3]) it was less than 10 nM; on IKKε (Table 3, read-out: IKKε IC50), 0.3 nM; on IKKε (setting [4]), less than 5 nM.

Regarding `CCN1CCC(CCCOc2cc(Nc3nccc(-c4ccc(OC5CCOCC5)c(C#N)c4)n3)ccc2OC)CC1` [compound 521, 5-[2-({3-[3-(1-ethylpiperidin-4-yl)propoxy]-4-methoxyphenyl}amino)pyrimidin-4-yl]-2-(tetrahydro-2H-pyran-4-yloxy)benzonitrile], the IC50 in assay [1] (setting [2]) was less than 100 nM; on TBK1 (setting [3]) it was less than 10 nM; on IKKε (setting [4]) it was less than 5 nM.

On to `N#Cc1cc(-c2ccnc(Nc3cccc(OCCN4CCOCC4)c3)n2)ccc1OC1CCOCC1` [compound 518, 5-[2-({3-[2-(Morpholin-4-yl)ethoxy]phenyl}amino)pyrimidin-4-yl]-2-(tetrahydro-2H-pyran-4-yloxy)benzonitrile], for which the IC50 in assay [1] (setting [2]) is less than 100 nM; on TBK1 (setting [3]), less than 10 nM; on IKKε (setting [4]), less than 5 nM.

As for `COCCOC1CN(C(=O)c2ccc(Nc3nccc(-c4ccc(OC5CCOCC5)c(C#N)c4)n3)cc2OC)C1` [compound 632, 5-{2-[(3-Methoxy-4-{[3-(2-methoxyethoxy)azetidin-1-yl]carbonyl}phenyl)amino]pyrimidin-4-yl}-2-(tetrahydro-2H-pyran-4-yloxy)benzonitrile], the IC50 is 22.8 nM in assay [1] (setting [5]); less than 100 nM in assay [1] (setting [2]); 0.4 nM on TBK1 (Table 3, read-out: TBK1 IC50); less than 10 nM at TBK1 (setting [3]); 0.5 nM on IKKε (Table 3, read-out: IKKε IC50); less than 5 nM on IKKε (setting [4]).

On to `COc1ccc(Nc2nccc(-c3ccc(OC4CCOCC4)c(C#N)c3)n2)cc1OCCCN1CCOCC1` [compound 529, 5-[2-({4-methoxy-3-[3-(morpholin-4-yl)propoxy]phenyl}amino)pyrimidin-4-yl]-2-(tetrahydro-2H-pyran-4-yloxy)benzonitrile], for which the values for the IC50 (in assay [1] (setting [2]); on TBK1 (setting [3]); at IKKε (setting [4])) were less than 100 nM, less than 10 nM and less than 5 nM, respectively.

Take `N#Cc1cc(-c2ccnc(Nc3ccc(F)c(OCCN)c3)n2)ccc1OC1CCOCC1` [compound 640, 5-(2-{[3-(2-Aminoethoxy)-4-fluorophenyl]amino}pyrimidin-4-yl)-2-(tetrahydro-2H-pyran-4-yloxy)benzonitrile]: the IC50 in assay [1] (setting [2]) is 100 to 250 nM; on TBK1 (setting [3]), less than 10 nM; at IKKε (setting [4]) it was less than 5 nM.

`COc1cc(Nc2nccc(-c3ccc(OC4CCOCC4)c(C#N)c3)n2)ccc1C(=O)NCCCN(C)C` [Example 103, 4-({4-[3-cyano-4-(tetrahydro-2H-pyran-4-yloxy)phenyl]pyrimidin-2-yl}amino)-N-[3-(dimethylamino)propyl]-2-methoxybenzamide]: the IC50 is 250 to 500 nM in assay [1] (setting [2]), less than 10 nM at TBK1 (setting [3]) and less than 5 nM at IKKε (setting [4]).

`COc1cc(Nc2nccc(-c3ccc(OC4CCOCC4)c(C#N)c3)n2)ccc1S(=O)(=O)NC1CCN(C)CC1` [Example 253, 4-({4-[3-cyano-4-(tetrahydro-2H-pyran-4-yloxy)phenyl]pyrimidin-2-yl}amino)-2-methoxy-N-(1-methylpiperidin-4-yl)benzenesulfonamide]: the IC50 is 250 to 500 nM in assay [1] (setting [2]), less than 10 nM at TBK1 (setting [3]) and less than 5 nM on IKKε (setting [4]).

As for `COc1cc(Nc2nccc(-c3ccc(OC4CCOCC4)c(C#N)c3)n2)ccc1C(=O)N1CC(N(C)C)C1` [compound 377, 5-{2-[(4-{[3-(dimethylamino)azetidin-1-yl]carbonyl}-3-methoxyphenyl)amino]pyrimidin-4-yl}-2-(tetrahydro-2H-pyran-4-yloxy)benzonitrile], the IC50 was 100 to 250 nM in assay [1] (setting [2]), less than 10 nM on TBK1 (setting [3]) and less than 5 nM at IKKε (setting [4]).
